The values below come from ChEMBL document CHEMBL3045814, “Antifungal activity of Hinokitiol-related compounds on wood-rotting fungi and their insecticidal activities” (2000).

Converted amounts (≈) assume the structure as drawn. The source made the active and inactive calls. The calls are words filed in the database; no cut-off is given here.

What all share (format): functional
Assay [1] concerns Coptotermes formosanus. In words: Insecticidal activity against Coptotermes formosanus assessed as mortality after 24 to 48 hr.
The subject of another assay is Lenzites betulinus. Kind of assay: Antifungal activity against Lenzites betulinus IFO-4964 assessed as growth inhibition after 7 days by agar dilution method. As to conditions: for MIC: IFO-4964, 168 h. On the technique in general: In agar dilution the substance is mixed into plates at graded concentrations.
Assay [2] concerns Tyrophagus putrescentiae. Kind of assay: Insecticidal activity against Tyrophagus putrescentiae assessed as mortality after 24 hr by clip method.
A further assay has as its system Trametes versicolor. In words: Antifungal activity against Trametes versicolor IFO-4940 assessed as growth inhibition after 7 days by agar dilution method. As to conditions: for MIC: IFO-4940, 168 h.
Another assay deals with Schizophyllum commune. In words: Antifungal activity against Schizophyllum commune IFO-4928 assessed as growth inhibition after 7 days by agar dilution method. As to conditions: for MIC: IFO-4928, 168 h.
The subject of another assay is Trametes coccinea. Kind of assay: Antifungal activity against Pycnoporus coccineus IFO-4924 assessed as growth inhibition after 7 days by agar dilution method. The conditions noted are these: for MIC: IFO-4924, 168 h.
The subject of another assay is Fomitopsis dickinsii. Kind of assay: Antifungal activity against Daedalea dickinsii IFO-4979 assessed as growth inhibition after 7 days by agar dilution method. The conditions noted are these: for MIC: IFO-4979, 168 h.
Assay [3] has as its system Coptotermes formosanus. In words: Insecticidal activity against Coptotermes formosanus assessed as mortality at 0.05 g/m2 after 24 hr relative to control.
Assay [4] has as its system Tyrophagus putrescentiae. Kind of assay: Insecticidal activity against Tyrophagus putrescentiae assessed as mortality at 0.1 g/m2 after 24 hr by clip method relative to control.
The test system of assay [5] is Tyrophagus putrescentiae. Kind of assay: Insecticidal activity against Tyrophagus putrescentiae assessed as mortality at 0.5 g/m2 after 24 hr by clip method relative to control.
Assay [6] deals with Coptotermes formosanus. In words: Insecticidal activity against Coptotermes formosanus assessed as mortality at 0.01 g/m2 after 48 hr relative to control.
Assay [7] has as its system Coptotermes formosanus. Kind of assay: Insecticidal activity against Coptotermes formosanus assessed as mortality at 0.2 g/m2 after 48 hr relative to control.
The test system of assay [8] is Coptotermes formosanus. Kind of assay: Insecticidal activity against Coptotermes formosanus assessed as mortality at 0.1 g/m2 after 24 hr relative to control.
In assay [9] the test system is Tyrophagus putrescentiae. Kind of assay: Insecticidal activity against Tyrophagus putrescentiae assessed as mortality at 0.2 g/m2 after 24 hr by clip method relative to control.
The test system of assay [10] is Coptotermes formosanus. Kind of assay: Insecticidal activity against Coptotermes formosanus assessed as mortality at 0.02 g/m2 after 24 hr relative to control.
Assay [11] deals with Tyrophagus putrescentiae. In words: Insecticidal activity against Tyrophagus putrescentiae assessed as mortality at 1 g/m2 after 24 hr by clip method relative to control.
The subject of assay [12] is Tyrophagus putrescentiae. In words: Insecticidal activity against Tyrophagus putrescentiae assessed as mortality at 0.01 g/m2 after 24 hr by clip method relative to control.
Assay [13] deals with Tyrophagus putrescentiae. Kind of assay: Insecticidal activity against Tyrophagus putrescentiae assessed as mortality at 0.02 g/m2 after 24 hr by clip method relative to control.
The subject of assay [14] is Coptotermes formosanus. Kind of assay: Insecticidal activity against Coptotermes formosanus assessed as mortality at 1 g/m2 after 24 hr relative to control.
In assay [15] the test system is Coptotermes formosanus. Kind of assay: Insecticidal activity against Coptotermes formosanus assessed as mortality at 0.01 g/m2 after 24 hr relative to control.
The subject of assay [16] is Coptotermes formosanus. In words: Insecticidal activity against Coptotermes formosanus assessed as mortality at 0.05 g/m2 after 48 hr relative to control.
Assay [17] relates to Tyrophagus putrescentiae. Kind of assay: Insecticidal activity against Tyrophagus putrescentiae assessed as mortality at 0.05 g/m2 after 24 hr by clip method relative to control.
For assay [18], the system named is Coptotermes formosanus. Kind of assay: Insecticidal activity against Coptotermes formosanus assessed as mortality at 0.2 g/m2 after 24 hr relative to control.
In assay [19] the test system is Coptotermes formosanus. Kind of assay: Insecticidal activity against Coptotermes formosanus assessed as mortality at 0.02 g/m2 after 48 hr relative to control.
The subject of assay [20] is Coptotermes formosanus. Kind of assay: Insecticidal activity against Coptotermes formosanus assessed as mortality at 0.1 g/m2 after 48 hr relative to control.
In assay [21] the test system is Coptotermes formosanus. Kind of assay: Insecticidal activity against Coptotermes formosanus assessed as mortality at 1 g/m2 after 48 hr relative to control.
Assay [22] concerns Coptotermes formosanus. In words: Insecticidal activity against Coptotermes formosanus assessed as mortality at 0.00001 g/m2 after 48 hr relative to control.
In assay [23] the test system is Coptotermes formosanus. In words: Insecticidal activity against Coptotermes formosanus assessed as mortality at 0.00050 g/m2 after 48 hr relative to control.
For assay [24], the system named is Coptotermes formosanus. Kind of assay: Insecticidal activity against Coptotermes formosanus assessed as mortality at 0.00001 g/m2 after 24 hr relative to control.
Assay [25] relates to Coptotermes formosanus. In words: Insecticidal activity against Coptotermes formosanus assessed as mortality at 0.00025 g/m2 after 24 hr relative to control.
The subject of assay [26] is Coptotermes formosanus. In words: Insecticidal activity against Coptotermes formosanus assessed as mortality at 0.00005 g/m2 after 24 hr relative to control.
Assay [27] has as its system Coptotermes formosanus. In words: Insecticidal activity against Coptotermes formosanus assessed as mortality at 0.00010 g/m2 after 48 hr relative to control.
Assay [28] relates to Coptotermes formosanus. In words: Insecticidal activity against Coptotermes formosanus assessed as mortality at 0.00025 g/m2 after 48 hr relative to control.
The subject of assay [29] is Coptotermes formosanus. In words: Insecticidal activity against Coptotermes formosanus assessed as mortality at 0.00010 g/m2 after 24 hr relative to control.
Assay [30] has as its system Coptotermes formosanus. Kind of assay: Insecticidal activity against Coptotermes formosanus assessed as mortality at 0.00050 g/m2 after 24 hr relative to control.
The test system of assay [31] is Coptotermes formosanus. In words: Insecticidal activity against Coptotermes formosanus assessed as mortality at 0.00005 g/m2 after 48 hr relative to control.

For the compound `CC(=O)Oc1cc(C(C)C)cccc1=O`, the result in the assay on Coptotermes formosanus [1] and with Tyrophagus putrescentiae [2] was inactive. Moreover, the “growth inhibition (GI)” value in the assay with Lenzites betulinus, in the assay with Trametes versicolor, with Schizophyllum commune, with Trametes coccinea and in the assay on Fomitopsis dickinsii was “inactive” in each case.

By MIC is commonly meant the lowest concentration that inhibits growth of the organism. The term mortality denotes the percentage killed. Turning to `CC(C)c1cccc(=O)c(O)c1` [HINOKITIOL], the LC50 is recorded as 0.07 g/m2 with Coptotermes formosanus [1] and 0.246 g/m2 with Tyrophagus putrescentiae [2]. For the same compound, the MIC with Lenzites betulinus is 12.5 µg/mL (≈ 76.1 µM); with Trametes versicolor, 12.5 µg/mL (≈ 76.1 µM); in the assay on Schizophyllum commune, 12.5 µg/mL (≈ 76.1 µM); in the assay with Trametes coccinea it was 12.5 µg/mL (≈ 76.1 µM); in the assay on Fomitopsis dickinsii, 0.2 µg/mL (≈ 1.22 µM). Also, the mortality in the assay on Coptotermes formosanus [3] is listed as 40%; with Tyrophagus putrescentiae [4] it was 11.9%; in the assay on Tyrophagus putrescentiae [5] it was 91.3%; with Coptotermes formosanus [6], 0%; with Coptotermes formosanus [7], 100%; in the assay on Coptotermes formosanus [8] it was 50%. Besides, the mortality was found to be 33.6% in the assay on Tyrophagus putrescentiae [9]; 10% in the assay on Coptotermes formosanus [10]; 100% with Tyrophagus putrescentiae [11]; 0% in the assay on Tyrophagus putrescentiae [12]; 0% in the assay with Tyrophagus putrescentiae [13]; 100% in the assay on Coptotermes formosanus [14]. Moreover, the mortality is 0% in the assay on Coptotermes formosanus [15]; 50% in the assay on Coptotermes formosanus [16]; 0% in the assay with Tyrophagus putrescentiae [17]; 100% in the assay on Coptotermes formosanus [18]; 20% in the assay on Coptotermes formosanus [19]; 100% with Coptotermes formosanus [20]. In addition, the mortality in the assay with Coptotermes formosanus [21] amounted to 100%.

On to `C[C@@H]1[C@H](O)[C@@H](C)/C=C/C=C/C=C/C=C/C=C/C=C/C=C/[C@H](O[C@@H]2O[C@H](C)[C@@H](O)[C@H](N)[C@@H]2O)C[C@@H]2O[C@](O)(C[C@@H](O)C[C@@H](O)[C@H](O)CC[C@@H](O)C[C@@H](O)CC(=O)O[C@H]1C)C[C@H](O)[C@H]2C(=O)O` [AMPHOTERICIN B], for which the minimum inhibitory concentration (MIC) in the assay on Lenzites betulinus was determined as 0.39 µg/mL (≈ 0.422 µM); in the assay on Trametes versicolor, 0.39 µg/mL (≈ 0.422 µM); in the assay on Schizophyllum commune it was 0.39 µg/mL (≈ 0.422 µM); with Trametes coccinea, 0.78 µg/mL (≈ 0.844 µM); in the assay with Fomitopsis dickinsii, 0.39 µg/mL (≈ 0.422 µM).

Turning to `CCN(CC)C(=O)c1cccc(C)c1` [DIETHYLTOLUAMIDE], the mortality is 0% with Tyrophagus putrescentiae [4]; 18.9% with Tyrophagus putrescentiae [5]; 4.5% in the assay on Tyrophagus putrescentiae [9]; 67.1% in the assay with Tyrophagus putrescentiae [11]; 0% with Tyrophagus putrescentiae [12]; 0% with Tyrophagus putrescentiae [13]. In addition, the mortality in the assay on Tyrophagus putrescentiae [17] amounted to 0%. Besides, in the assay on Tyrophagus putrescentiae [2], the LC50 amounted to 0.79 g/m2.

In the case of `CCOP(=S)(OCC)Oc1nc(Cl)c(Cl)cc1Cl` [CHLORPYRIFOS], the LC50 in the assay on Coptotermes formosanus [1] worked out at 0.00016 g/m2. Also, the mortality in the assay with Coptotermes formosanus [22] came out at 0%; in the assay with Coptotermes formosanus [23], 100%; in the assay with Coptotermes formosanus [24], 0%; in the assay with Coptotermes formosanus [25], 60%; with Coptotermes formosanus [26], 10%; in the assay with Coptotermes formosanus [27], 75%. For the same compound, the mortality in the assay with Coptotermes formosanus [28] is 100%; with Coptotermes formosanus [29], 25%; in the assay with Coptotermes formosanus [30] it was 100%; with Coptotermes formosanus [31], 40%.

For the compound `C=C(C)c1cccc(=O)c(O)c1` [BETA-DOLABRIN], the LC50 with Coptotermes formosanus [1] was determined as 0.05 g/m2; with Tyrophagus putrescentiae [2], 0.02 g/m2. Further, the MIC turned out to be 12.5 µg/mL (≈ 77.1 µM) in the assay on Lenzites betulinus; 6.25 µg/mL (≈ 38.5 µM) with Trametes versicolor; 12.5 µg/mL (≈ 77.1 µM) in the assay on Schizophyllum commune; 25 µg/mL (≈ 154 µM) with Trametes coccinea; 0.2 µg/mL (≈ 1.23 µM) in the assay on Fomitopsis dickinsii. The mortality in the assay with Coptotermes formosanus [3] was determined as 0%; with Tyrophagus putrescentiae [4], 90%; with Tyrophagus putrescentiae [5] it was 100%; in the assay with Coptotermes formosanus [6], 0%; with Coptotermes formosanus [7], 100%; in the assay on Coptotermes formosanus [8] it was 40%. In addition, the mortality with Tyrophagus putrescentiae [9] was 100%; with Coptotermes formosanus [10] it was 0%; in the assay on Tyrophagus putrescentiae [11], 100%; in the assay with Tyrophagus putrescentiae [12], 0%; with Tyrophagus putrescentiae [13], 31%; with Coptotermes formosanus [14] it was 100%. Besides, the mortality in the assay with Coptotermes formosanus [15] was found to be 0%; in the assay on Coptotermes formosanus [16], 11%; with Tyrophagus putrescentiae [17] it was 91%; with Coptotermes formosanus [18], 100%; with Coptotermes formosanus [19] it was 0%; in the assay on Coptotermes formosanus [20], 95%. Also, the mortality with Coptotermes formosanus [21] is listed as 100%.

For the compound `CC(C)c1ccc(O)c(=O)cc1` [GAMMA-THUJAPLICIN], the LC50 with Coptotermes formosanus [1] worked out at 0.05 g/m2; with Tyrophagus putrescentiae [2] it was 0.02 g/m2. In addition, the MIC in the assay on Lenzites betulinus was 12.5 µg/mL (≈ 76.1 µM); in the assay on Trametes versicolor it was 6.25 µg/mL (≈ 38.1 µM); in the assay with Schizophyllum commune, 12.5 µg/mL (≈ 76.1 µM); with Trametes coccinea, 25 µg/mL (≈ 152 µM); in the assay with Fomitopsis dickinsii it was 0.2 µg/mL (≈ 1.22 µM). The mortality with Coptotermes formosanus [3] is given as 10%; in the assay with Tyrophagus putrescentiae [4] it was 84%; in the assay with Tyrophagus putrescentiae [5], 100%; with Coptotermes formosanus [6], 5%; in the assay on Coptotermes formosanus [7], 100%; in the assay with Coptotermes formosanus [8], 20%. Moreover, the mortality in the assay on Tyrophagus putrescentiae [9] is on record as 100%; in the assay on Coptotermes formosanus [10], 0%; with Tyrophagus putrescentiae [11] it was 100%; with Tyrophagus putrescentiae [12], 0%; in the assay on Tyrophagus putrescentiae [13] it was 51%; in the assay with Coptotermes formosanus [14], 100%. Besides, the mortality with Coptotermes formosanus [15] was determined as 0%; in the assay on Coptotermes formosanus [16] it was 32%; in the assay on Tyrophagus putrescentiae [17], 66%; in the assay on Coptotermes formosanus [18] it was 100%; in the assay on Coptotermes formosanus [19], 11%; with Coptotermes formosanus [20], 100%. In the assay on Coptotermes formosanus [21], the mortality is on record as 100%.
